Data from patent publication US10434076B2, “Use of 2,5-dihydroxybenzene derivatives for treating dermatitis” (AmDerma Pharmaceuticals, LLC, priority 2006, dated 2019).
Entries after “also recorded” stand apart in the source; their conditions may differ.

Legend:
[1] = tested on: dermatitis induced by the application of benzalkonium chloride on the rat ears; test: Benzalkonium chloride induced dermatitis on rat ears, Evans blue dye extravasation; format: in vivo; conditions: for percentage of the area stained in blue compared to the total area of the ear (dermatitis extent): treated vs untreated ear
Method: Dermatitis was induced by the application of benzalkonium chloride, 5% solution (w/v) (1:5 olive oil:acetone) on the entire extent of the back part of the car ([…]) in anesthetized rats. Dermatitis was induced in both ears. In the assay of 2,5-dihydroxybenzenesulfonate (DHBS), a cream containing 5% of DHBS (w/w) was applied topically only on the back part of the right ear, 30 minutes after the application of benzalkonium chloride. Fifteen minutes later, 0.5% by weight of Evans blue dye solution (400 μL per animal) was injected into the jugular vein. […] Therefore, it can be stated that topical application of 5% DHBS reduced the dermatitis extent.
This observation was confirmed upon quantification of dermatitis extent based on the area of the ear stained in blue with respect to the total area of the ear. Identically obtained photographs of the extended ears were processed in order to determine the stained area and the total area of the ear using a computer program to analyze images (Motic Image). The stained area of each ear was related to the total area to obtain the percentage of the ear affected by the dermatitis. […] 24 hours after dermatitis induction (FIG. 2B), these values were very similar.
Using the same procedure as in the former example, dermatitis was induced by the application of benzalkonium chloride, 5% solution (w/v) (1:5 olive oil:acetone) on the entire extent of the back part of the ear (40 μL/ear) in anesthetized rats. Dermatitis was induced in both ears. A cream containing 5% (w/v) of either 2-acetoxy-5-hydroxybenzenesulfonate (2A-5HBS) or 5-acetoxy-2-hydroxybenzenesulfonate (5A-2HBS) was applied topically only on the back part of the right ear, 30 minutes after the application of benzalkonium chloride. Fifteen minutes later, 0.5% (w/v) of Evans blue dye solution (400 μL per animal) was injected into the jugular vein. […] Therefore, it can be stated that topical application of 5% 2A-5HBS and 5% 5A-2HBS reduced the dermatitis extent.
This observation was confirmed upon quantification of dermatitis extent based on the area of the ear stained in blue with respect to the total area of the ear. Identically obtained photographs of the extended ears were processed in order to determine the stained area and the total area of the ear using a computer program to analyze images (Motic Image). The stained area of each car was related to the total area to obtain the percentage of the ear affected by the dermatitis.

[2] = molecular target: Fibroblast Growth Factor-1 (FGF-1) (Homo sapiens, UniProt P05230); test: Structural interaction with FGF-1 (diffraction of complex crystals); format: binding; conditions: electron density
Chain of Fibroblast Growth Factor-1 (FGF-1) (P05230 whole entry, species assumed): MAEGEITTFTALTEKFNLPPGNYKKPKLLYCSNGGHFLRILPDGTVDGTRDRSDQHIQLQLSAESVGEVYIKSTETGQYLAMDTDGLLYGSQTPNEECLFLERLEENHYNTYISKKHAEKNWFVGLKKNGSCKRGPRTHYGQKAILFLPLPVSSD
Method: As of the diffraction from complex crystals of FGF-1: 2-acetoxy-5-hydroxybenzenesulfonic acid, FGF-1; 5-acetoxy-2-hydroxybenzenesulfonic acid and FGF-1: 2,5-diacetoxybenzenesulfonic acid, the complex structures were calculated and represented. In FIGS. 10, 11 and 12, representing the surface of the protein coloured according to its electrostatic potential (light grey: negative charge, dark grey: positive charge, white: areas with no charge), the interaction form of the 2-acetoxy-5-hydroxybenzenesulfonic acid, 5-acetoxy-2-hydroxybenzenesulfonic acid and 2,5-diacetoxybenzenesulfonic acid, respectively, with the FGF-1 may be observed.

[3] = tested on: dermatitis induced by benzalkonium chloride on the ear of the rat; test: Benzalkonium chloride induced dermatitis on rat ears, erythema and histological study; format: in vivo
Method: Using the same model, dermatitis was induced on both ears of two rats, following the same process described above. In this case, 30 minutes after the application of benzalkonium chloride, a rat was treated in both ears with a glycerol solution (FIG. 3A), while the other one was treated in both ears with a glycerol solution containing 2.5% (w/v) of 2,5-diacetoxybenzenesulfonate (DABS) (FIG. 3B).

[4] = tested on: myeloperoxidase (MPO) activity; test: Myeloperoxidase (MPO) activity in the ear after benzalkonium chloride induced dermatitis; format: in vivo, rat; conditions: for increase in MPO activity in the ear caused by dermatitis: 24 hours after induction
Method: In this same model (Hyun E et al. Br J Pharmacol, 2004), dermatitis induction has been associated to an increase in the myeloperoxidase (MPO) activity in the ear, as a marker of leukocyte infiltration in the tissue affected with dermatitis. Based on these evidences, the effect of hydroxybenzene derivatives (i the activity of the MPO in the model described in this example was established. The MPO activity was determined in the ears of control rats (without dermatitis) and in ears on which dermatitis had been induced with benzalkonium chloride and had been treated with vehicle (anhydrous glycerol), 5% DHBS cream or DABS 2.5% solution in glycerol. The ears were frozen in liquid nitrogen 24 hours after the induction of dermatitis and were kept at −80° C. until determination of MPO activity. To determine the MPO activity, the frozen ears were homogenized in phosphate buffer with 0.5% of hexadecyltrimethylammonium bromide. After several freezing/thawing/sonication cycles, the samples were centrifuged at 13,000×g during 20 minutes at 4° C. H2O2 and O-dianisidine were added into the supernatants and the absorbance was measured at 460 nm in a spectrophotometer 1 hour after incubation at room temperature. The MPO activity is expressed as absorbance units per mg of tissue.

[5] = topical 5% (w/v) monoester on right ear vs untreated left ear, 24 hours after induction
[6] = topical 5% monoester solution, 24 hours after induction
[7] = topical 2.5% DABS in glycerol vs vehicle, tissues fixed 24 hours after induction

Row | Compound | blue stain extent (Evans blue dye extravasation), photographs [1, 5] | percentage of the area stained in blue compared to the total area of the ear (dermatitis extent) [1, 6] | acetoxyl groups kept when bound to FGF-1 [2] | location of the compound bound to FGF-1 [2] | erythema caused by the dermatitis ([3]; topical 2.5% (w/v) DABS in glycerol vs glycerol vehicle) | granulocytes adhered to the capillary endothelial cells (histological study) [3, 7] | leukocyte infiltration (histological study) [3, 7] | tissular edema (histological study) [3, 7] | efficacy on MPO activity relative to 5% DHBS ([4]; 2.5% DABS (half the amount of active principle) compared with 5% DHBS) | increase in MPO activity in the ear caused by dermatitis ([4]; topical 2.5% DABS solution in glycerol vs vehicle) | blue stain extent (Evans blue dye extravasation), photographs ([1]; topical cream 5% DHBS on right ear vs untreated left ear, 4 hours after dermatitis induction) | percentage of the area stained in blue compared to the total area of the ear (dermatitis extent) ([1]; topical cream 5% DHBS, 4 hours after induction) | increase in MPO activity in the ear caused by dermatitis ([4]; topical 5% DHBS cream vs vehicle)
1 | CC(=O)Oc1ccc(O)c(S(=O)(=O)O)c1 [5A-2HBS, 5-acetoxy-2-hydroxybenzenesulfonic acid] | notably reduced; also recorded: remarkably reduced dye extravasation | significantly reduced the percentage of the area stained in blue | keep the acetoxyl groups in positions 2, 5 and, 2 and 5, respectively | located at a site very close to the site that, as described, is occupied by the 2,5-dihydroxybenzenesulfonic acid |  |  |  |  |  |  |  |  | 
2 | CC(=O)Oc1ccc(OC(C)=O)c(S(=O)(=O)O)c1 [DABS, 2,5-diacetoxybenzenesulfonic acid] |  |  | keep the acetoxyl groups in positions 2, 5 and, 2 and 5, respectively | located at a site very close to the site that, as described, is occupied by the 2,5-dihydroxybenzenesulfonic acid | reduced benzalkonium chloride induced dermatitis; also recorded: milder | significant reduction; also recorded: not observed | reduces the edema and the leukocyte infiltration; also recorded: noticeably milder | reduces the edema; also recorded: not observed | slightly higher | significantly reduces |  |  | 
3 | CC(=O)Oc1ccc(O)cc1S(=O)(=O)O [2A-5HBS, 2-acetoxy-5-hydroxybenzenesulfonic acid] | clearly smaller blue stain; also recorded: remarkably reduced dye extravasation | significantly reduced the percentage of the area stained in blue; also recorded: significantly reduced dermatitis extent | keep the acetoxyl groups in positions 2, 5 and, 2 and 5, respectively | located at a site very close to the site that, as described, is occupied by the 2,5-dihydroxybenzenesulfonic acid |  |  |  |  |  |  |  |  | 
4 | O=S(=O)(O)c1cc(O)ccc1O [DHBS, 2,5-dihydroxybenzenesulfonic acid, reference compound] |  |  |  |  |  |  |  |  |  |  | clearly smaller blue stain; also recorded: remarkably reduced dye extravasation | significantly reduced the percentage of the area stained in blue; also recorded: significantly reduced dermatitis extent | significantly reduced
